One test has as its system ERK 1,2 MAPK. Nature of the test: Immunoblot of phospho-MAPK in MCF-7 transfectants. In kind it is cell-based, human. As to conditions: MKP3-overexpressing MCF-7 cells; 2 hours, 100 nM. Here is the method:
Cells grown in 100 mm dishes were starved in phenol red-free (PRF), serum-free MEM (Specialty Media, Phillipsburg, N.J.) for 48 hours, and were then treated for 2 hours with vehicle (ethanol), estrogen (100 nM, 20), or OHT (100 nM). After treatment, cells were rinsed twice with ice-cold phosphate-buffered saline (PBS) and were then lysed immediately with 200 μl of cell lysis buffer (20 mM Tris HCl, pH 7.4, 150 mM NaCl, 1 mM B-glycerophosphate, 1 mM sodium orthovanadate, and 10% glycerol plus 1:100 proteinase inhibitor cocktail III) (Calbiochem, LaJolla, Calif.) per 100 mm tissue culture. The cell lysates were cleared by centrifugation at 16,100×g for 10 minutes at 4° C. Protein concentration was determined with the BCA Protein Assay kit (Pierce, Rockfold, Ill.) according to the manufacturer's directions. Equal amount of cell extracts were resolved under denaturing conditions by electrophoresis in 8-10% polyacrylamide gels containing sodium dodecyl sulfate (SDS-PAGE), and transferred to nitrocellulose membranes by electroblotting (Schleicher & Schuell, Keene, NH). After blocking of the transferred nitrocellulose membrane with TBST (20 mM Tris pH 7.6, 150 mM NaCl, 0.1% Tween-20) supplemented with 5% non-fat milk for 1 hour at room temperature, the membrane was incubated with primary antibodies either for 1 hour at room temperature (anti-ERα, 1:100 dilution; anti-AIB1, 1:100 dilution; anti-ERK2, 1:500 dilution; anti-Cyclin D1,1:500 dilution; anti-PR, C-19, 1:200 dilution; anti-p190, 1:1000 dilution; anti-V5, 1:5000 dilution), or overnight at 4° C. (anti-phospho MAPK, 1:1000 dilution; anti-phosphor-Ser118-ERα; 1:1000 dilution; MAPK p42/44, 1:1000 dilution), incubated with secondary antibodies for 1 hour at room temperature and then developed with Enhanced Chemiluminescence Reagents (Amersham Pharmacia Biotech, Piscataway, N.J.).
MAPK activity is tightly regulated by phosphorylation and dephosphorylation. MKP3 participates in a bidirectional regulatory loop with ERK2 MAPK, whereby ERK2 substrate binding is associated with catalytic activation of MKP3, and activated MKP3 negatively regulates pERK2 (Camps et al., 1998). […] Immunoblot analysis with anti-V5 was used to detect ectopic MKP3 expression in the two MKP3 transfectants (FIG. 5A, top panel). FIGS. 5B and 5C provide quantitation of results in FIG. 5A.
In general terms: A western blot detects proteins with antibodies after separation by electrophoresis.

For the next test, the system named is MCF-7-MKP3 xenografts. Put plainly: Xenograft growth of MCF-7 vector control and MKP3-transfected cells in athymic nude mice. In kind it is in vivo. As for the experimental part: MCF-7 vector control and MKP3-transfected cells were established as xenografts in ovariectomized 5- to 6-week-old BALB/c athymic nude mice (Harlan Sprague Dawley, Madison, Wis.) supplemented with 0.25-mg 21-day-release E2 pellets (Innovative Research, Sarasota, Fla.) by inoculating the mice subcutaneously with 5×10^6 cells, as described previously (Osborne et al., 1995). […] Tumor growth was assessed and tumor volumes were measured as described previously (Osborne et al., 1995). Mice were anesthetized with isoflurane before tumor removal; tumor tissues were kept at […] for later analyses. Animal care was in accordance with institutional guidelines.
To analyze the endocrine sensitivity of the MKP3-overexpressing cells in more detail in vivo, the ability of MCF-7-vector control 1 and MCF-7-MKP3-2 transfectants to form tumors in athymic mice was examined. Xenografts were established in ovariectomized mice supplemented with estrogen for 21 days. […] This was examined by fitting the data in an exponential growth model, and testing whether growth rates were different between the groups; the analyses were done separately for estrogen-treated (FIG. 4C, left panel) and Tam-treated animals (right panel). There was no difference in the estrogen-stimulated growth of the MCF-7-vector control and MKP3-overexpressing cells (P=0.52).

Test [1] relates to T47D cells overexpressing MTA2. Nature of the test: Soft agar growth of MTA2-overexpressing T47D cells. Particulars: MTA2.5 and 2.8 clones compared to vector alone transfected cells. In kind it is cell-based, human. An excerpt: Metastasis associated protein 2 (MTA2), also known as PID, is contained in nucleosome remodeling and histone deacetylation (NuRD) complexes. Overexpression of MTA2 into T47D human breast cancer cells (MTA2.5 and 2.8 clones) increases the growth in soft agar in the absence of estrogen (C).

With `C[C@]12CC[C@@H]3c4ccc(O)cc4CC[C@H]3[C@@H]1CC[C@@H]2O` [E2, 17β-Estradiol], the “levels of pMAPK” value with ERK 1,2 MAPK is on record as “lowest”. Moreover, in the test on MCF-7-MKP3 xenografts (estrogen-treated animals, P=0.52), the “tumor growth rate, MKP3-overexpressing versus vector control xenografts” value is on record as “no difference”. Moreover, the “response of soft agar growth” value in test [1] is reported as “unresponsive”.
On to `CC/C(=C(\c1ccccc1)c1ccc(OCCN(C)C)cc1)c1ccccc1` [Tam, tamoxifen], for which, in the test on ERK 1,2 MAPK, the “levels of pMAPK” value was “highest activation of MAPK”. The “tumor growth rate, MKP3-expressing versus vector control xenografts” value with MCF-7-MKP3 xenografts (estrogen withdrawal plus tamoxifen citrate 500 μg/animal s.c. 5 days/week, P=0.047) is “significantly increased”. The “response of soft agar growth” value in test [1] is on record as “unresponsive”.

The values above are taken from patent US20070059720A9 (priority 2004, published 2007).
